The target of one assay is T1, Adenosine receptor A3 (Homo sapiens, UniProt P0DMS8).
T1 sequence (P0DMS8 whole entry): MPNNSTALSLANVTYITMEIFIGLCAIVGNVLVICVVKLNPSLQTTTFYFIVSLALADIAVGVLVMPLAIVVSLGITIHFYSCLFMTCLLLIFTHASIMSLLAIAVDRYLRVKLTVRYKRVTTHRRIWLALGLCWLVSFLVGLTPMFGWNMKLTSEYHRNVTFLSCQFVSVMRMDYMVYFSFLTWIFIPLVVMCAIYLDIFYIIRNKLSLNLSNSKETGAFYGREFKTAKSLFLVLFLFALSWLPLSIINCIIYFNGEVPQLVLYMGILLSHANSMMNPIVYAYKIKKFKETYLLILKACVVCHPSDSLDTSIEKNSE

Assay [1] addresses T2, Neuropeptide Y receptor type 1 (Homo sapiens, UniProt P25929).
T2 sequence (P25929 whole entry): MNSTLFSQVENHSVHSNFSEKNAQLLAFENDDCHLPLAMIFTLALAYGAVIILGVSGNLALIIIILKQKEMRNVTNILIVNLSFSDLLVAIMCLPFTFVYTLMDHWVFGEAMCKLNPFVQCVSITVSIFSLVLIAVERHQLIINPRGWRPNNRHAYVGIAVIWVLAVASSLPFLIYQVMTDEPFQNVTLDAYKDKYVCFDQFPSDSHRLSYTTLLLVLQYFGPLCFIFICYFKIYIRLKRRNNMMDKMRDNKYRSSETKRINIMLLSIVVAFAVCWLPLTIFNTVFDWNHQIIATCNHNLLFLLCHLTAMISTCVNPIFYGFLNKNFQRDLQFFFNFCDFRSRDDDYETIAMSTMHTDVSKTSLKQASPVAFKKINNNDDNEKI

The target in assay [2] is T3, Alpha-1A adrenergic receptor (Homo sapiens, UniProt P35348).
T3 sequence (P35348 whole entry): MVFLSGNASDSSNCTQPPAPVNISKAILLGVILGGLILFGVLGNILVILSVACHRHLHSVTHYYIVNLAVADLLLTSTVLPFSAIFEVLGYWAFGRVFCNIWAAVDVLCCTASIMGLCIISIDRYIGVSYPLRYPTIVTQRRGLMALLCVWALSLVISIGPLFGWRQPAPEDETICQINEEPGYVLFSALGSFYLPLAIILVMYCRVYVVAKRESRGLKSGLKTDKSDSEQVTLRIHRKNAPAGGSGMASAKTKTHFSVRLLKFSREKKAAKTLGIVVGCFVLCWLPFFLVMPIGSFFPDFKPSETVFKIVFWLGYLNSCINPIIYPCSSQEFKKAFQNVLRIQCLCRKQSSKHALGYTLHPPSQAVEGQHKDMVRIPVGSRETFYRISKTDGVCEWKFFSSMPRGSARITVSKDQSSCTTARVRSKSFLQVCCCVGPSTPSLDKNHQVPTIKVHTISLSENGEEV

Another assay concerns the target Prothrombin (Homo sapiens, UniProt P00734). The format is functional.
Assay [3] has as its target Voltage-dependent L-type calcium channel subunit alpha-1C (Rattus norvegicus, UniProt P22002). The format is functional.
For assay [4], the target named is T4, 5-hydroxytryptamine receptor 1A (Homo sapiens, UniProt P08908).
T4 sequence (P08908 whole entry): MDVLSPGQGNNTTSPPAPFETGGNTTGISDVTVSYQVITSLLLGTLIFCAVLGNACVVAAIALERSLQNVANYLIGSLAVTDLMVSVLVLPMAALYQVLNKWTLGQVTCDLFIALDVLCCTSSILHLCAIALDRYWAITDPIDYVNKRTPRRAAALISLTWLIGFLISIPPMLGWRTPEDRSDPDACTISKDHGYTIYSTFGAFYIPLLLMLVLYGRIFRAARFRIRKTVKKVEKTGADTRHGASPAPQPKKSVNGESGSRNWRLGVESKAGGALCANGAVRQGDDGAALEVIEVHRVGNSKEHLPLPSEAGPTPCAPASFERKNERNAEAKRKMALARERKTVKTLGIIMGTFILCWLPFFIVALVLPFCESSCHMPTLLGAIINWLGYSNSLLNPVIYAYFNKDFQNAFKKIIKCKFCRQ

The target in assay [5] is T5, Mu-type opioid receptor (Homo sapiens, UniProt P35372). Description: biochemical. The format is functional.
T5 sequence (P35372 whole entry): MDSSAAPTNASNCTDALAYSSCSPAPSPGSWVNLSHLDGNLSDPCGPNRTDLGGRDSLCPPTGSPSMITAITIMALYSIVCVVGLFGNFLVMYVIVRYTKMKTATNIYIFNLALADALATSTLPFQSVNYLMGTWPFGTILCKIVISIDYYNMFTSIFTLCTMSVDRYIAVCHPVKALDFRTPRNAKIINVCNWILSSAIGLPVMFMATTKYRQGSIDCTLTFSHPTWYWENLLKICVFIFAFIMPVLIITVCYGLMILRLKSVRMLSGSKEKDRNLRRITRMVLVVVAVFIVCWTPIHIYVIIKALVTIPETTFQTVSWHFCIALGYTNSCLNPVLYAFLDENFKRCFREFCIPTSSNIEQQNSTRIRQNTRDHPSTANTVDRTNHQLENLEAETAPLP
The target in assay [6] is T5, Mu-type opioid receptor.
The target of a further assay is T6, Thromboxane A2 receptor (Homo sapiens, UniProt P21731).
T6 sequence (P21731 whole entry): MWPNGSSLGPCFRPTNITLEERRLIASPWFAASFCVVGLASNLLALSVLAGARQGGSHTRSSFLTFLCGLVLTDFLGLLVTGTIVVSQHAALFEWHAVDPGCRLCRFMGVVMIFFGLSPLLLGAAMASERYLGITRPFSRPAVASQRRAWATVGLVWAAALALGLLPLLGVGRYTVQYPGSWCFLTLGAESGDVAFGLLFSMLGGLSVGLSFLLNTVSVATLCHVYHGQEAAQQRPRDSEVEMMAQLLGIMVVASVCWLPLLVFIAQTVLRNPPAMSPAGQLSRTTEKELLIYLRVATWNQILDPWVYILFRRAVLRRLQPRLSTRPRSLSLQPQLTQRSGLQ

The target in assay [7] is Sodium-dependent noradrenaline transporter (Homo sapiens, UniProt P23975).
Sequence of Sodium-dependent noradrenaline transporter (P23975 whole entry): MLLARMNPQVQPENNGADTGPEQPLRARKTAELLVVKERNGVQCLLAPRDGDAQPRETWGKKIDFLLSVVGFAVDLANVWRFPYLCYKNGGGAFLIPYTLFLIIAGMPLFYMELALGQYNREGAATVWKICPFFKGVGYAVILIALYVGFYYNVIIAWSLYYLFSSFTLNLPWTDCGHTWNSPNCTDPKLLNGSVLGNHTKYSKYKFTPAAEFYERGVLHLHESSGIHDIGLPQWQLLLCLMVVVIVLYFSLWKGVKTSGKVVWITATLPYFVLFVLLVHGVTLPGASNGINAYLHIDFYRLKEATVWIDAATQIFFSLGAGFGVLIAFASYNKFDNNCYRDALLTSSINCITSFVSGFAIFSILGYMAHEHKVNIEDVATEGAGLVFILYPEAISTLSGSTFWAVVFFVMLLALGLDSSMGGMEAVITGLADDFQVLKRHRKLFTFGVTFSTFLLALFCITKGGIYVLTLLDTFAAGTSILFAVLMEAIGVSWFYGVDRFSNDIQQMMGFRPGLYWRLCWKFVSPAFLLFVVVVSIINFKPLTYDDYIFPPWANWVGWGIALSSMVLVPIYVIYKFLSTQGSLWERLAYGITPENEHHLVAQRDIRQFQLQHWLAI
The target of another assay is T7, Estrogen receptor (Homo sapiens, UniProt P03372).
T7 sequence (P03372 whole entry): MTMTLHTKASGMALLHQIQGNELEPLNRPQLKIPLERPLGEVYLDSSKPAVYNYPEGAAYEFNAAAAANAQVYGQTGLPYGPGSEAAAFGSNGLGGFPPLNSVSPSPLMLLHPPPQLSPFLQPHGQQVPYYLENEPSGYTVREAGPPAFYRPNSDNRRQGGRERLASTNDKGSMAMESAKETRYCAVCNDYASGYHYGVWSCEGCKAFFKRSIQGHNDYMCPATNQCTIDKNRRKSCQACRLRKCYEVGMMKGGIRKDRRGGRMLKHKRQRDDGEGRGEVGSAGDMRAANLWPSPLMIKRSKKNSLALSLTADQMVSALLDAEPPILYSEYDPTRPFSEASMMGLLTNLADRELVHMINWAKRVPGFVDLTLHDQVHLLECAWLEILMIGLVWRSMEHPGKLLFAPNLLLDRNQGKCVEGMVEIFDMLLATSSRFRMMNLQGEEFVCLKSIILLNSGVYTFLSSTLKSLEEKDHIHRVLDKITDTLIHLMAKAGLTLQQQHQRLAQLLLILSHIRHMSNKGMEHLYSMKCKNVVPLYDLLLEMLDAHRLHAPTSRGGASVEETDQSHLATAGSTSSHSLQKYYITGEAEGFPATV

The target in assay [8] is Vascular endothelial growth factor receptor 2 (Homo sapiens, UniProt P35968). The class given is functional.
Sequence of Vascular endothelial growth factor receptor 2 (P35968 whole entry): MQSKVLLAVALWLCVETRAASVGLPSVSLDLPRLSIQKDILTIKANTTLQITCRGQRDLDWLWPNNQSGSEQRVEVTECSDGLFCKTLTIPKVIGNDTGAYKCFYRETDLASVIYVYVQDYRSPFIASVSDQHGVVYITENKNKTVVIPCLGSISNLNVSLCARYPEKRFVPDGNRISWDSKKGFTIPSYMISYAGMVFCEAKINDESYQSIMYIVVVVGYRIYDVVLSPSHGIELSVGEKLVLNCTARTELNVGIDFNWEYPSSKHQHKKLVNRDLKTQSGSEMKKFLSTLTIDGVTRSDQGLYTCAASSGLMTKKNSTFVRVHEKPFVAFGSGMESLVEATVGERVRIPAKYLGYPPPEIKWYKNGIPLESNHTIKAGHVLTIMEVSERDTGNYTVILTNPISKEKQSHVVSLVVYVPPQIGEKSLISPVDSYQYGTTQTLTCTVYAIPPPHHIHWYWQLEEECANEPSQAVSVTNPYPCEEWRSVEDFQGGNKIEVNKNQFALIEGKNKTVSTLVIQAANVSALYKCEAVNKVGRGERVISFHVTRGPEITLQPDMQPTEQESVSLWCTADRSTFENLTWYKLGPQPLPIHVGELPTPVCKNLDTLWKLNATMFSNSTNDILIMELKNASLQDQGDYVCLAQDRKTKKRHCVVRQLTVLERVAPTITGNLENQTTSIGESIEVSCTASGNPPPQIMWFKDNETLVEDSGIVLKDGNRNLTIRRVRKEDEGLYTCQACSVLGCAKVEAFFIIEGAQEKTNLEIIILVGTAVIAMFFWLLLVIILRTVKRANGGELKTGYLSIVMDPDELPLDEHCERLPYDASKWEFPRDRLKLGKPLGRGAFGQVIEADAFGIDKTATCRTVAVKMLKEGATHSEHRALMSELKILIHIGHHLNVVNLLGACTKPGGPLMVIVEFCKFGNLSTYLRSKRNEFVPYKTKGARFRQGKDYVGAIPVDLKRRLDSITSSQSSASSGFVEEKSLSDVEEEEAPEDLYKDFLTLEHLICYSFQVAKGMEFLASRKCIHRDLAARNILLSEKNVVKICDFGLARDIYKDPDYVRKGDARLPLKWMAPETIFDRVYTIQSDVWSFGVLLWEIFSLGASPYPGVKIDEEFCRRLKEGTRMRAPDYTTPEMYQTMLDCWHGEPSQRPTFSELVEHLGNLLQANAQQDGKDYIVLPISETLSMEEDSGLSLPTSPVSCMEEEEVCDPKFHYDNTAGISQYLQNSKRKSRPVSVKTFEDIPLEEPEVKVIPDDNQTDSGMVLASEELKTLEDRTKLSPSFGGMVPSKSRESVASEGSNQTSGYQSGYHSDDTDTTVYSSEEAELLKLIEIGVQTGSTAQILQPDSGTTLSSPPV

Sequence of Voltage-dependent L-type calcium channel subunit alpha-1C (P22002 whole entry): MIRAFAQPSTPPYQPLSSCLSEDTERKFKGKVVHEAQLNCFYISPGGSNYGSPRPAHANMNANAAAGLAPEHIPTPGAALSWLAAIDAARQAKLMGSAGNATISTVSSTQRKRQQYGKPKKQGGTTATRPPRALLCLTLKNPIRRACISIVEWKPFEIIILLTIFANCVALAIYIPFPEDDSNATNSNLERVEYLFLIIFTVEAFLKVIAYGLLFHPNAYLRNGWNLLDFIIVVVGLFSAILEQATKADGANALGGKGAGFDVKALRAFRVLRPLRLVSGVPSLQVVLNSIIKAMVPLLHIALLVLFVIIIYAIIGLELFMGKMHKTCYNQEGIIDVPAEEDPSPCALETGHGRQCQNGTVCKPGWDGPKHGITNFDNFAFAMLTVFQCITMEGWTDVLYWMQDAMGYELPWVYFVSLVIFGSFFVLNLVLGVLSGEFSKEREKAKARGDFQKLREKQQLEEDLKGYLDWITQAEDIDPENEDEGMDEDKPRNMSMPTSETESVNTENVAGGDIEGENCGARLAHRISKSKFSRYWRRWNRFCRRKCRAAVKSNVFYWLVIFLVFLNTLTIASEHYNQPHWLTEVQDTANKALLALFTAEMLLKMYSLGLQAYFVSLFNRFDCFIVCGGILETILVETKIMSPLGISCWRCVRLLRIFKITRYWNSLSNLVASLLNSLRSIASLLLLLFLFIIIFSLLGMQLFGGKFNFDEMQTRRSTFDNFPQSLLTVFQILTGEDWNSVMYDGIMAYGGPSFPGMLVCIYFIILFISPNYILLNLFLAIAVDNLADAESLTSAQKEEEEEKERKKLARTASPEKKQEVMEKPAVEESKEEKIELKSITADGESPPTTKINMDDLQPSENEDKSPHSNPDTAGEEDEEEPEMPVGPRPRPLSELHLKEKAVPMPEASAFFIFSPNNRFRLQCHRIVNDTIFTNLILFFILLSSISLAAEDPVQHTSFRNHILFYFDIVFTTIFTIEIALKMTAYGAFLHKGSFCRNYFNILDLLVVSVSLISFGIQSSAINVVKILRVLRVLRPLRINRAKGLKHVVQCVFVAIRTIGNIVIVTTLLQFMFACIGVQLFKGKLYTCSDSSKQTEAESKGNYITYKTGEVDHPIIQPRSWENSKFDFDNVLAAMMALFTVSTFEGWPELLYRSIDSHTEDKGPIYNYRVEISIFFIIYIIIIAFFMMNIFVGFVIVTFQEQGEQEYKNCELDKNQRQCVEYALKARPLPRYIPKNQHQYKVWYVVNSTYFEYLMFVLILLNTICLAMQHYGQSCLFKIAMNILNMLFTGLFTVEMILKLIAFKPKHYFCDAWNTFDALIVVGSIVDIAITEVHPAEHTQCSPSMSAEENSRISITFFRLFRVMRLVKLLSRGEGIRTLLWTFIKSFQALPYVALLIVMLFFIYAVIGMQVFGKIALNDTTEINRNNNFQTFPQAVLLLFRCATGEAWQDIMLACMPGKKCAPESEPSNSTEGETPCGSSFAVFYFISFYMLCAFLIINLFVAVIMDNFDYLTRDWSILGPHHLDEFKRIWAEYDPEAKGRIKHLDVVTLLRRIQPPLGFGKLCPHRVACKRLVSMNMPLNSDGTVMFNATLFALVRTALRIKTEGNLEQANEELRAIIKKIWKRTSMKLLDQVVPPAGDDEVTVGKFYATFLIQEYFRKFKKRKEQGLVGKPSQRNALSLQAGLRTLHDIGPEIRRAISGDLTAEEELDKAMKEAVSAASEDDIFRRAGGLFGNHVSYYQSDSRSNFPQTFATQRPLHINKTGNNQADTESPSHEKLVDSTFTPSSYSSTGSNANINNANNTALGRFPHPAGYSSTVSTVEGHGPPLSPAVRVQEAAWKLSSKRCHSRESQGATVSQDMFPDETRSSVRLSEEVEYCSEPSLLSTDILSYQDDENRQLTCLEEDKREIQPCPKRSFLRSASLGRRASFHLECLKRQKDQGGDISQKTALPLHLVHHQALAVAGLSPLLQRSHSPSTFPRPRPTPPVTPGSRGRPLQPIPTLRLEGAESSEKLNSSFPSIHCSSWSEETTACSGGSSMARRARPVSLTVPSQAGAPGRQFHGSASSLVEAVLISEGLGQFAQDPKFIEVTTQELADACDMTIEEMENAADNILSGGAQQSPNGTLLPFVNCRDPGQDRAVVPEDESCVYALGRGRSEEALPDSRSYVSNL

For orientation: AC50 means the concentration giving half of the maximal activity seen. Consider `CC(C)C(=O)Nc1ccc([N+](=O)[O-])c(C(F)(F)F)c1` [FLUTAMIDE], for which the AC50 at Adenosine receptor A3 is 20.3 µM; in [1], over 30 µM; in [2], over 30 µM; at Prothrombin, over 30 µM; in assay [3] it was over 10 µM; in assay [4], over 30 µM. For the same compound, the AC50 (on Mu-type opioid receptor [5]; at Mu-type opioid receptor [6]; on Thromboxane A2 receptor; in assay [7]; on Estrogen receptor; in [8]) was over 30 µM each time.

On to `NC(=O)c1cnccn1` [PYRAZINAMIDE], for which the AC50 is over 30 µM at Adenosine receptor A3; over 30 µM in assay [1]; over 10 µM in assay [2]; over 30 µM on Prothrombin; over 30 µM in [3]; over 30 µM in assay [4]. The AC50 (at Mu-type opioid receptor [5]; at Mu-type opioid receptor [6]; on Thromboxane A2 receptor; in assay [7]; at Estrogen receptor; in [8]) was over 30 µM throughout.

`Nc1nc(N)c2nc(-c3ccccc3)c(N)nc2n1`: the AC50 on Adenosine receptor A3 was over 30 µM; in [1], over 30 µM; in [2], over 10 µM; on Prothrombin, over 3 µM; in assay [3], over 30 µM; in assay [4], over 30 µM. Further, the AC50 was over 30 µM at Mu-type opioid receptor [5]; 17 µM at Mu-type opioid receptor [6]; over 30 µM on Thromboxane A2 receptor; 16.1 µM in [7]; over 30 µM at Estrogen receptor; over 30 µM in [8].

Source of the values: ChEMBL document CHEMBL5291721, “A preclinical secondary pharmacology resource illuminates target-adverse drug reaction associations of marketed drugs” (Nat Commun, 2023).
